Test [1] has as its system HF57 cells. The test can be described thus: Transcriptomics (RNAseq) of MTX and PTX treated cells (FIG. 20). Format: cell-based, human. The note with it: for pluripotency markers significantly enriched: compared to controls. From the text:
RNAseq data validated that application of MTX and PTX affected C1 metabolism in the treated cells. […] The global transcriptional change across the groups compared was visualized by a volcano plot (FIGS. 20A-20B). Each data point in the scatter plot represents a gene. The log 2 fold change of each gene is represented on the x-axis and the log 10 of its adjusted p-value is on the y-axis. Genes with an adjusted p-value less than 0.05 and a log 2 fold change greater than 1 are indicated by red dots. […] Genes with an adjusted p-value less than 0.05 and a log 2 fold change less than −1 are indicated by green dots. […] Heat map visualization of the selected 67 differentially expressed genes. Original values are ln(x)-transformed. Rows are centered; unit variance scaling is applied to rows. Red indicates higher expression, whereas low expression indicated in green (FIG. 20C). For visual clarity, expression of selected genes is presented in groups based on their relative values (FIG. 20D).
(§1) The quiescent nature of the MTX and PTX cells and the association of demethylation with the generation of induced pluripotent stem cells led to examining markers for stem cells formation. The 293T and HF57 cells were grown on 5% dialyzed FBS DMEM medium. DMEM without methionine, DMEM with 15 mg/L (half dose) and DMEM with 30 mg/L (regular DMEM) were used to grow the cells. Once the cells attained 70% confluency, HF57 were treated with 1-μM MTX or PTX and HEK293T were treated with 500 nM MTX or 1 μM PTX. The cells were treated with MTX or PTX for 7-days, and subsequently the medium was replaced with N2B27 medium (Thermo Fisher Scientific, USA). The cells were grown in N2B27 medium for 15 days which supported undifferentiated growth of human embryonic stem cells. Subsequently, these cells were maintained in MTeSR medium supplemented with sodium hypoxanthine and thymidine (HT) for 15 or more days. These conditions supported prolonged self-renewal of putative pluripotent cells, and they were able to form colonies and later embryoid bodies in vitro. Subsequently, the cells were assessed for markers linked to stem cells. Transcriptomics and qRT-PCR were performed to examine whether ES cell marker genes were expressed in these cells. Both MTX and PTX treated cells expressed the marker genes (FIGS. 20-21 and 25-26). […] To authenticate these findings, two key pluripotency markers (SSEA-4 and TRA 1-60) were examined using immunofluorescence.

For the next test, the system named is 293T cells. The test can be described thus: qRT-PCR relative transcript levels of ANKRD1 and ANOS (FIG. 22, 23). Format: cell-based, human. The note with it: vs control cells. How it is done: (§2) To validate microarray results, quantitative 2-step RT-PCR was performed. One microgram of total RNA was reverse transcribed to first-strand cDNA with the Qiagen cDNA Synthesis Kit (Qiagen), and this cDNA was subsequently used as a template for quantitative PCR with gene-specific primers. The ubiquitous β-actin gene served as a control for constitutive gene expression. The quantitative RT-PCR (qRT-PCR) reactions were performed using Power Sybr Green PCR Master Mix (Thermo Fisher Scientific) on a CFX96 Touch Real-Time PCR Detection System (Bio-Rad, Hercules, CA, USA). Relative expression levels (2^−ΔCt) were calculated according to the Livak and Schmittgen method (40). Expression levels of each gene were compared with the expression level of actin.
For orientation: Real-time PCR tracks product formation cycle by cycle.

In test [2] the test system is human dermal fibroblast (HDF) cells. Put plainly: Cell proliferation under prolonged MTX/PTX application, with or without HT (FIG. 16). In kind it is cell-based. The note with it: controlled application, 5% dialyzed-FBS DMEM, 1 μM MTX for 7-days. How it is done: (§3) The cells were grown in 5% dialyzed-FBS DMEM medium. 293T cells were treated with 500 nM MTX, and HF57 cells and HDF cells were treated with 1 μM MTX for 7-days. Because inhibition of DHFR and TS by folate antagonists (MTX, PTX) results in a deficiency in the cellular pools of thymidylate and purines and thus a decrease in nucleic acid synthesis, sodium hypoxanthine (10 mM) and thymidine (1.6 mM) were added to the medium to overcome the effects of MTX and PTX. […] The cells were harvested for DNA/RNA isolation and analyzed for gene expression and DNA methylation.

The subject of test [3] is human fibroblast cells (HF57). Described as above. Format: cell-based. The note with it: controlled application, 5% dialyzed-FBS DMEM, 1 μM MTX for 7-days. How it is done: as §3
For test [4], the system named is HF57 cells. Put plainly: qRT-PCR relative transcript levels (FIG. 21B, FIG. 32). In kind it is cell-based, human. As to conditions: for transcripts level of DNMT1 / transcripts level of MTHFR / transcripts level of MTR / relative transcripts level of Nanog / relative transcripts level of Oct4 / relative transcripts level of Sox2: FIG. 21B; for relative transcripts level of Nanog / relative transcripts level of Oct4 / relative transcripts level of Sox2: vs control cells. How it is done:
Also, the cells were treated with PTX for 2-days only. Since exposure time of PTX or MTX is very critical for gene expression or other genetic changes, the expression of ANOS could be higher after prolonged exposure to PTX.
as §2, §1

Test [5] has as its system HF57 cells. Put plainly: Global DNA methylation, 5mC ELISA (FIG. 18). In kind it is cell-based, human. The note with it: 7-days; vs untreated cells. How it is done: Equal amount of DNA (100 ng) was analyzed with 5mC enzyme-linked immunosorbent assay (ELISA) (EpiGentek). […] Error bars represent the standard error for at least three independent experiments and three technical replicates.
Global DNA methylation measurement Global 5-methylcytosine (5-mC) levels were quantified using the MethylFlash Methylated DNA Quantification Kits (Epigentek, Farmingdale, NY, USA). The DNA concentration was determined using the Qubit Assay (Thermo Fisher Scientific) according to the manufacturer's protocol. Briefly, 100 ng of DNA was used for incubation with both capture and detection antibodies using MethylFlash Methylated DNA Quantification Kit (Colorimetric) from Epigentek. Subsequently, measurements of the absorbance of the sample at 450 nm in a microplate spectrophotometer (BioTek Instruments, Winooski, VT, USA) were performed with the percentage of the whole genome 5-mC calculation according to manufacturer's instructions. Genomic methylation levels in study samples were expressed as percentage of 5-mC.
On the technique in general: In an ELISA, binding on a coated surface is turned into a signal by an enzyme label.

In test [6] the test system is Sox2 and Oct4 (stem cell markers). Put plainly: qRT-PCR relative transcript levels of stem cell markers (FIG. 21A). Format: cell-based, human. As to conditions: cell line not given, vs control cells. How it is done:
as §2

For the compound `Nc1nc2[nH]cc(CCc3ccc(C(=O)N[C@@H](CCC(=O)O)C(=O)O)cc3)c2c(=O)[nH]1` [PTX, pemetrexed], in the test on HF57 cells [1], the “LIN28A enrichment compared to controls” value was determined as 6 fold; the “NANOG enrichment compared to controls” value was 6 fold; the “SOX2 enrichment compared to controls” value came out at 5 fold; the “one carbon-metabolism and DNA methylation related genes significantly down-regulated” value was “about 41 genes”. Further, in the test with HF57 cells [1], the “one carbon-metabolism and DNA methylation related genes upregulated” value is reported as 9 genes; the “pluripotency markers significantly enriched” value is listed as “about 50”. Also, in the test with 293T cells, the “relative transcripts level of ANOS” value was “significantly higher” and the “relative transcripts level of Ankyrin repeat domain 1 (ANKRD1)” value was “significantly higher”. Moreover, the cell proliferation entry in test [2] is given as “reduced cell proliferation”. In addition, the cell proliferation entry in test [3] is given as “reduced cell proliferation”. Besides, in the test with HF57 cells [4], the “transcripts level of DNMT1” value is given as “significantly reduced”, the “transcripts level of MTHFR” value is given as “significantly reduced”, the “transcripts level of MTR” value was “significantly reduced” and the “relative transcripts level of Nanog” value is “significantly higher”. For the same compound, in the test with HF57 cells [4], the “relative transcripts level of Oct4” value was “significantly higher” and the “relative transcripts level of Sox2” value is reported as “significantly higher”. Further, in the test with HF57 cells [4] (treated for 2-days), the “expression of ANKRD1” value is recorded as “significantly higher than control” and the “expression of ANOS” value is listed as “significantly higher than control”. Further, the “global DNA methylation (5mC content)” value in the test with HF57 cells [5] is on record as “significant reduction in global DNA methylation”.
For `CN(Cc1cnc2nc(N)nc(N)c2n1)c1ccc(C(=O)N[C@@H](CCC(=O)O)C(=O)O)cc1` [MTX, methotrexate], in the test on HF57 cells [1], the “LIN28A enrichment compared to controls” value was determined as 6 fold; the “NANOG enrichment compared to controls” value came out at 6 fold; the “SOX2 enrichment compared to controls” value turned out to be 5 fold; the “one carbon-metabolism and DNA methylation related genes significantly down-regulated” value was “about 41 genes”. For the same compound, in the test on HF57 cells [1], the “one carbon-metabolism and DNA methylation related genes upregulated” value stood at 9 genes; the “pluripotency markers significantly enriched” value is on record as “about 50”. Moreover, in the test with 293T cells, the “relative transcripts level of ANOS” value is reported as “significantly higher” and the “relative transcripts level of Ankyrin repeat domain 1 (ANKRD1)” value is “significantly higher”. Further, in test [2], the cell proliferation result is on record as “reduced cell proliferation”. Also, in test [3], the cell proliferation entry is “reduced cell proliferation”. Besides, in test [6], the “relative transcripts level of Oct4” value is reported as “significantly higher” and the “relative transcripts level of Sox2” value was “significantly higher”. Also, in the test on HF57 cells [4], the “transcripts level of DNMT1” value was “significantly reduced”, the “transcripts level of MTHFR” value is reported as “significantly reduced”, the “transcripts level of MTR” value is recorded as “significantly reduced” and the “relative transcripts level of Nanog” value was “significantly higher”. Moreover, in the test on HF57 cells [4], the “relative transcripts level of Oct4” value is given as “significantly higher” and the “relative transcripts level of Sox2” value was “significantly higher”. The “global DNA methylation (5mC content)” value with HF57 cells [5] was “significant reduction in global DNA methylation”.
